Test results from US11780826B2 (Amgen Inc., priority 2017, dated 2023).

Test system: Bovine cardiac myofibrils
Test: In vitro model of dose-dependent myofibril ATPase modulation (AC1.4, pyruvate kinase/lactate dehydrogenase-coupled ATPase assay at pCa25)
Format: biochemical
Settings: concentration at which ATPase activity was 1.4-fold higher than the bottom of the dose curve, mean of a minimum of two independent tests
Outline: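 Absorbance at 340 nm tracked ATP hydrolysis through pyruvate kinase/lactate dehydrogenase coupling (0.5 mM NADH, 1.5 mM PEP). Myofibrils from detergent-homogenized bovine heart, 1 mM ATP, pH 6.80, EGTA/CaCl2 buffering. Dose-response curves fitted with a four-parameter Hill equation.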

| Structure (SMILES) | AC1.4 [µM] |
| --- | --- |
| CC[C@H](NC(=O)[C@H]1CCCN1C(=O)c1cccc(S(=O)(=O)N(C)C)c1)c1ccc(Cl)c(F)c1 [Example 629, N-((1S)-1-(4-chloro-3-fluorophenyl)propyl)-1-(3-(dimethylsulfamoyl)benzoyl)-D-prolinamide] | 4.051 |
| CC[C@@H](NC(=O)[C@H]1CCCN1C(=O)c1cccc(S(C)(=O)=O)c1)c1ccc(C(F)(F)F)cc1F [Example 630, N-((1R)-1-(2-fluoro-4-(trifluoromethyl)phenyl)propyl)-1-(3-(methylsulfonyl)benzoyl)-D-prolinamide] | 3.9185 |
| CN(C)S(=O)(=O)c1cccc(C(=O)N2CCC[C@@H]2C(=O)N[C@H](CO)c2ccc(Cl)c(F)c2)c1 [Example 634, N-((1S)-1-(4-chloro-3-fluorophenyl)-2-hydroxyethyl)-1-(3-(dimethylsulfamoyl)benzoyl)-D-prolinamide] | 4.1045 |
| C[C@@H](NC(=O)[C@H]1CCCN1C(=O)c1cccc(S(=O)(=O)N2CC3(CC3)C2)c1)c1ccc(Cl)c(Cl)c1 [Example 635, 1-((3-(5-azaspiro[2.3]hex-5-ylsulfonyl)phenyl)carbonyl)-N-((1R)-1-(3,4-dichlorophenyl)ethyl)-D-prolinamide] | 4.1355 |
| C[C@@H](NC(=O)[C@H]1CCCN1C(=O)c1cccc(S(C)(=O)=O)c1)c1cc(F)c(Cl)cc1F [Example 636, N-((1R)-1-(4-chloro-2,5-difluorophenyl)ethyl)-1-(3-(methylsulfonyl)benzoyl)-D-prolinamide] | 3.919 |
| O=C(N[C@@H](c1cc(F)c(Cl)cc1F)C1COC1)[C@H]1C[C@@H](O)CN1C(=O)c1cncc(C(F)(F)F)c1 [Example 638, (4R)-N-((R)-(4-chloro-2,5-difluorophenyl)(3-oxetanyl)methyl)-4-hydroxy-1-((5-(trifluoromethyl)-3-pyridinyl)carbonyl)-D-prolinamide] | 4.1835 |
| CCc1ccnc(C(=O)N2[C@@H](C(=O)N[C@@H](c3cc(F)c(Cl)cc3F)C3CC3)C[C@H]3C[C@H]32)c1 [Example 640, (1R,3R,5R)-N-((R)-(4-chloro-2,5-difluorophenyl)(cyclopropyl)methyl)-2-((4-ethyl-2-pyridinyl)carbonyl)-2-azabicyclo[3.1.0]hexane-3-carboxamide] | 4.2315 |
| O=C(N[C@@H](c1cc(F)c(Cl)cc1F)C1CC1)[C@H]1C[C@@H](O)CN1C(=O)c1cncc(C(F)(F)F)c1 [Example 641, (4R)-N-((R)-(4-chloro-2,5-difluorophenyl)(cyclopropyl)methyl)-4-hydroxy-1-((5-(trifluoromethyl)-3-pyridinyl)carbonyl)-D-prolinamide] | 4.262 |
| CC(C)(C)c1cc(C(=O)N2[C@@H](C(=O)N[C@@H](c3ccc(C(F)(F)F)cc3F)C3COC3)C[C@H]3C[C@H]32)ccn1 [Example 647, (1R,3R,5R)-N-((R)-(2-fluoro-4-(trifluoromethyl)phenyl)(3-oxetanyl)methyl)-2-((2-(2-methyl-2-propanyl)-4-pyridinyl)carbonyl)-2-azabicyclo[3.1.0]hexane-3-carboxamide] | 4.4125 |
| O=C(N[C@@H](c1ccc(C(F)(F)F)cc1F)C1CC1)[C@H]1CCCCN1C(=O)c1ccc2c(c1)S(=O)(=O)CC2 [Example 653, (2R)—N—((R)-cyclopropyl(2-fluoro-4-(trifluoromethyl)phenyl)methyl)-1-((1,1-dioxido-2,3-dihydro-1-benzothiophen-6-yl)carbonyl)-2-piperidinecarboxamide] | 4.5245 |
| CS(=O)(=O)c1cccc(C(=O)N2C[C@@H](C(F)F)C[C@@H]2C(=O)N[C@@H](c2ccc(C(F)(F)F)cc2F)C2CC2)c1 [Example 656, (4S)-N-((R)-cyclopropyl(2-fluoro-4-(trifluoromethyl)phenyl)methyl)-4-(difluoromethyl)-1-(3-(methylsulfonyl)benzoyl)-D-prolinamide] | 4.071 |

Continued, values first:

| AC1.4 [µM] | Structure (SMILES) |
| --- | --- |
| 4.031 | NC(=O)[C@H]1C[C@H](S(=O)(=O)N2CCC[C@H](C(=O)N3CCC[C@@H]3C(=O)NCc3ccc(C(F)(F)F)cc3)C2)C1 [Example 626, 1-(((3S)-1-((trans-3-carbamoylcyclobutyl)sulfonyl)-3-piperidinyl)carbonyl)-N-(4-(trifluoromethyl)benzyl)-D-prolinamide] |
| 4.037 | CC(C)(C)[C@@H](NC(=O)[C@H]1CCCN1C(=O)c1cccc(S(=O)(=O)N2CC(C#N)C2)c1)c1ccc(C(F)(F)F)cc1 [Example 627, 1-(3-((3-cyano-1-azetidinyl)sulfonyl)benzoyl)-N-((1R)-2,2-dimethyl-1-(4-(trifluoromethyl)phenyl)propyl)-D-prolinamide] |
| 4.082 | O=C(NCc1ccc(C(F)(F)F)cc1)[C@H]1CCCN1C(=O)[C@H]1CCCN(S(=O)(=O)N2CC(O)C2)C1 [Example 631, 1-(((3S)-1-((3-hydroxy-1-azetidinyl)sulfonyl)-3-piperidinyl)carbonyl)-N-(4-(trifluoromethyl)benzyl)-D-prolinamide] |
| 4.0915 | COc1cc(C(C)NC(=O)[C@H]2CCCN2C(=O)[C@H]2CCCN(S(=O)(=O)N3CC(C#N)C3)C2)ccc1OC(F)F (stereo partly drawn) [Example 632, (2R)-1-((S)-1-((3-cyanoazetidin-1-yl)sulfonyl)piperidine-3-carbonyl)-N-(1-(4-(difluoromethoxy)-3-methoxyphenyl)ethyl)pyrrolidine-2-carboxamide] |
| 4.0935 | COc1ccc(F)cc1C(C)NC(=O)[C@H]1CCCN1C(=O)[C@H]1CCCN(S(=O)(=O)N2CC(C#N)C2)C1 (stereo partly drawn) [Example 633, (2R)-1-((S)-1-((3-cyanoazetidin-1-yl)sulfonyl)piperidine-3-carbonyl)-N-(1-(5-fluoro-2-methoxyphenyl)ethyl)pyrrolidine-2-carboxamide] |
| 4.1855 | CN1CCN(S(=O)(=O)N2CC(C#N)C2)CC1C(=O)N1CCC[C@@H]1C(=O)NCc1ccc(C(F)(F)F)cc1 (stereo partly drawn) [Example 639, (2R)-1-(4-((3-cyanoazetidin-1-yl)sulfonyl)-1-methylpiperazine-2-carbonyl)-N-(4-(trifluoromethyl)benzyl)pyrrolidine-2-carboxamide] |
| 4.2755 | Cc1ccc(F)c(CNC(=O)[C@H]2CCCN2C(=O)[C@H]2CCCN(S(=O)(=O)N3CC(C#N)C3)C2)c1 [Example 642, 1-(((3S)-1-((3-cyano-1-azetidinyl)sulfonyl)-3-piperidinyl)carbonyl)-N-(2-fluoro-5-methylbenzyl)-D-prolinamide] |
| 4.3125 | Cc1cccc(CNC(=O)[C@H]2CCCN2C(=O)[C@H]2CCCN(S(=O)(=O)N3CC(C#N)C3)C2)c1 [Example 643, 1-(((3S)-1-((3-cyano-1-azetidinyl)sulfonyl)-3-piperidinyl)carbonyl)-N-(3-methylbenzyl)-D-prolinamide] |
| 4.3367 | N#CC1CN(S(=O)(=O)c2cccc(C(=O)N3CCC[C@@H]3C(=O)NCc3ccc(C(F)(F)F)cn3)c2)C1 [Example 644, 1-((3-((3-cyano-1-azetidinyl)sulfonyl)phenyl)carbonyl)-N-((5-(trifluoromethyl)-2-pyridinyl)methyl)-D-prolinamide] |
| 4.351 | O=C(NCc1ccc(C(F)(F)F)cc1)[C@H]1CCCN1C(=O)[C@H]1CCCN(S(=O)(=O)NC2CS(=O)(=O)C2)C1 [Example 645, 1-(((3S)-1-((l,l-dioxido-3-thietanyl)sulfamoyl)-3-piperidinyl)carbonyl)-N-(4-(trifluoromethyl)benzyl)-D-prolinamide] |
| 4.377 | COc1ccc(S(C)(=O)=O)cc1C(=O)N1CCCC[C@@H]1C(=O)N[C@@H](c1ccc(C(F)(F)F)cc1F)C1CC1 [Example 646, (2R)-N-((R)-cyclopropyl(2-fluoro-4-(trifluoromethyl)phenyl)methyl)-1-(2-methoxy-5-(methylsulfonyl)benzoyl)-2-piperidinecarboxamide] |
| 4.421 | N#CC1CN(S(=O)(=O)N2CC[C@H](C(=O)N3CCC[C@@H]3C(=O)NCc3ccc(C(F)(F)F)cc3)C2)C1 [Example 648, 1-(((3S)-1-((3-cyano-1-azetidinyl)sulfonyl)-3-pyrrolidinyl)carbonyl)-N-(4-(trifluoromethyl)benzyl)-D-prolinamide] |
| 4.4365 | CON(C)S(=O)(=O)c1cccc(C(=O)N2CCC[C@@H]2C(=O)NCc2ccc(C(F)(F)F)cc2)c1 [Example 649, 1-(3-(methoxy(methyl)sulfamoyl)benzoyl)-N-(4-(trifluoromethyl)benzyl)-D-prolinamide] |
| 4.4705 | N#CC1CN(S(=O)(=O)N2CCC[C@H](C(=O)N3CCC[C@@H]3C(=O)NCc3cc(Cl)ccc3Cl)C2)C1 [Example 651, 1-(((3S)-1-((3-cyano-1-azetidinyl)sulfonyl)-3-piperidinyl)carbonyl)-N-(2,5-dichlorobenzyl)-D-prolinamide] |
| 4.5245 | N#CC1CN(S(=O)(=O)N2CCC[C@H](C(=O)N3CCC[C@@H]3C(=O)NCc3ccc(F)cc3C(F)(F)F)C2)C1 [Example 652, 1-(((3S)-1-((3-cyano-1-azetidinyl)sulfonyl)-3-piperidinyl)carbonyl)-N-(4-fluoro-2-(trifluoromethyl)benzyl)-D-prolinamide] |
| 4.538 | O=C(NCc1ccc(C(F)(F)F)cc1)[C@H]1CCCN1C(=O)[C@H]1CCCN(S(=O)(=O)N2CC3(CCO3)C2)C1 [Example 654, (R)-1-((S)-1-(1-oxa-6-azaspiro[3.3]heptan-6-ylsulfonyl)piperidine-3-carbonyl)-N-(4-(trifluoromethyl)benzyl)pyrrolidine-2-carboxamide] |
| 4.5443 | N#CC1CN(S(=O)(=O)c2cccc(C(=O)N3CCC[C@@H]3C(=O)NCc3cccc(C(F)(F)F)n3)c2)C1 [Example 655, 1-((3-((3-cyano-1-azetidinyl)sulfonyl)phenyl)carbonyl)-N-((6-(trifluoromethyl)-2-pyridinyl)methyl)-D-prolinamide] |
